{
  "source": "patent US7078424B2",
  "about": "“N-linked sulfonamides of N-heterocyclic carboxylic acids or carboxylic acid isosteres” (GPI NIL Holdings, Inc., priority 1998, dated 2006)",
  "tested_on": "dopaminergic neurons",
  "test": "MPTP model of Parkinson's Disease in mice (MPTP Neurodegenerative Model)",
  "assay_type": "in vivo",
  "conditions": "recovery of TH-stained dopaminergic neurons in striatum; male CD1 mice, MPTP 30 mg/kg i.p. 5 days; test compound 4 mg/kg s.c. concurrent with MPTP plus 5 further days; sacrificed at 18 days",
  "protocol": "MPTP lesioning of dopaminergic neurons in mice is used as an animal model of Parkinson's Disease. Four week old male CD1 white mice are dosed i.p. with 30 mg/kg of MPTP for 5 days. Test compounds (4 mg/kg), or vehicle, are administered s.c. along with the MPTP for 5 days, as well as for an additional 5 days following cessation of MPTP treatment. At 18 days following MPTP treatment, the animals are sacrificed and the striata dissected and perfusion-fixed. Immunostaining is performed on saggital and coronal brain sections using anti-tyrosine hydroxylase […] to quantitate survival and recovery of dopaminergic neurons. In animals treated with MPTP and vehicle, a substantial loss of functional dopaminergic terminals is observed as compared to non-lesioned animals. Lesioned animals receiving test compounds show a significant recovery of TH-stained dopaminergic neurons. This model presents quantitation for the recovery of TH-positive dopaminergic neurons in the striatum of animals receiving the compounds of the present invention. […]\nPercent striatal innervation density was quantitated is in brain sections with an anti-tyrosine hydroxylase immunoglobulin, which is indicative of functional dopaminergic neurons. […]",
  "data": [
    {"smiles": "O=C(O)[C@@H]1CCCN1S(=O)(=O)Cc1ccccc1", "note": "[Compound A, (2S)-N-(benzylsulfonyl)-2-pyrrolidinecarboxylic Acid]", "values": [
      {"measurement": "% Recovery", "value": 24.4, "unit": "%"}
    ]}
  ]
}
